For 29 compounds, IC50 results are on record in patent US20220356174A1, “PYRIDIN-2-ONE COMPOUNDS USEFUL AS SMARCA2 ANTAGONISTS” (Epizyme, Inc., priority 2018, published 2022).

pIC50: −log10 of the molar value.

For the first test, the target named is T1, FL-SMARCA2 (full-length human SMARCA2 isoform 1) (Homo sapiens, UniProt P51531).
T1 construct: FLAG tag (YKDDDDK) (C); made in house; host or cells: Sf21 insect cells (baculovirus, pFastBacI)
T1 sequence (P51531 with tags, fused parts or gaps): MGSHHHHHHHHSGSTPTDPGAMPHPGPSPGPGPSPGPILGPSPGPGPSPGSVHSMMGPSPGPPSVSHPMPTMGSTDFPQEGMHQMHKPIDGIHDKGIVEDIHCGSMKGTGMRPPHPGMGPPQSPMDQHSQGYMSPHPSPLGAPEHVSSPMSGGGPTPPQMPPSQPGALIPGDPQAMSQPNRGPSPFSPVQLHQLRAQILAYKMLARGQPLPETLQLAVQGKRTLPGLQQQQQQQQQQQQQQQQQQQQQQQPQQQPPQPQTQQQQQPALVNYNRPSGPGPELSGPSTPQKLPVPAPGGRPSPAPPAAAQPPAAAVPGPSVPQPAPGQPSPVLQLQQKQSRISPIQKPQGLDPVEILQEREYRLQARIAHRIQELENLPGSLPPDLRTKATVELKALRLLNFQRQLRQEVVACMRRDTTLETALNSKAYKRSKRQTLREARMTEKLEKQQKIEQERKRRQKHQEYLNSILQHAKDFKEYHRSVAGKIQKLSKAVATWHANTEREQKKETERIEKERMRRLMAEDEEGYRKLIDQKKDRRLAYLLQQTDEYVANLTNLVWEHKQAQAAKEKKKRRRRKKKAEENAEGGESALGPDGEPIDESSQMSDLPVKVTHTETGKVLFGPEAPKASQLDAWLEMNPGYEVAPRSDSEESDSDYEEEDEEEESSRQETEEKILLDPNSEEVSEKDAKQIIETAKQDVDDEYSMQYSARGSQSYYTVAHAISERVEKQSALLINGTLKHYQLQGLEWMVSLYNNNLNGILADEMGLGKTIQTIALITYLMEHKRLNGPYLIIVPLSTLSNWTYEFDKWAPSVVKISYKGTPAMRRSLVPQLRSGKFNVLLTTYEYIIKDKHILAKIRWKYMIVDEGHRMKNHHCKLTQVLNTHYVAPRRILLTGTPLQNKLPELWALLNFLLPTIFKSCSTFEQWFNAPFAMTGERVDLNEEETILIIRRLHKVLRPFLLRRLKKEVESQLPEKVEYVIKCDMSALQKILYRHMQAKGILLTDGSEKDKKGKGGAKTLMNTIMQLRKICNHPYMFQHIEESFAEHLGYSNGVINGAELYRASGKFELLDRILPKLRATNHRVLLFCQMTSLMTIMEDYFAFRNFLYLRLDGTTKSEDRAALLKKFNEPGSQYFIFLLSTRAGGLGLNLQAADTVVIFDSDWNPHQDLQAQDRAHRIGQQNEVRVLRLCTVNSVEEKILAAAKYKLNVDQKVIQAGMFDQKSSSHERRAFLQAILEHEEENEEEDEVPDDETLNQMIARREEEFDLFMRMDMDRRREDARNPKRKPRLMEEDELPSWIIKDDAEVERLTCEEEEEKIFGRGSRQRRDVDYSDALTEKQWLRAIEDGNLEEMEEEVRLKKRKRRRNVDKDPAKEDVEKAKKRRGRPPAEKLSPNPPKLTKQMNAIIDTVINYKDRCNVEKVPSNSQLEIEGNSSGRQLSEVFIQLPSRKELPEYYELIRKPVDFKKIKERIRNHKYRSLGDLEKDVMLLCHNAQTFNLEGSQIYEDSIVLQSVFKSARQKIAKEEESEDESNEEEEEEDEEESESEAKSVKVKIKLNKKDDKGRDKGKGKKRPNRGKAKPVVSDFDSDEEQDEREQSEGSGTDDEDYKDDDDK
Put plainly: SMARCA2 ATPase activity assay (ADP-Glo, chicken mononucleosome substrate). Format: biochemical. The settings on record: Table 3.1; ATPase assay, enzyme 5 nM, ATP 250 uM, chicken mononucleosome 10 nM, 30 min preincubation.
For `Cn1c(C(=O)Nc2cc(Cl)c(=O)n(CCF)c2)cc(Cl)c1Cl` [Compound 134], the pIC50 is 6.83.

As for `CCn1cc(NC(=O)c2c(C)noc2C)ccc1=O` [Compound 14], the pIC50 was < 4.30.

For the compound `O=C(Nc1cc(F)c(=O)n(CCF)c1)c1cnc(-n2ccnc2C(F)(F)F)s1` [Compound 281], the pIC50 is < 4.30.

For `O=C(Nc1cc(F)c(=O)n(CCF)c1)c1ccc(-c2ccn[nH]2)s1` [Compound 312], the pIC50 is < 4.30.

`CCn1cc(NC(=O)c2cc(Cl)n(C)c2)ccc1=O` [Compound 70] had a pIC50 of 4.78.

Regarding `CCn1cc(NC(=O)c2cc(-c3ccn(C)n3)c(Cl)s2)ccc1=O` [Compound 272], the pIC50 was < 4.30.

Take `N#Cc1cc(C(=O)Nc2ccc(=O)n(CCF)c2)sc1Cl` [Compound 187]: the pIC50 is 6.80.

As to `Cn1ccnc1-c1ccc(C(=O)Nc2cc(F)c(=O)n(CCF)c2)s1` [Compound 316], the pIC50 is < 4.30.

As for `COCCn1cc(NC(=O)c2nc(C)n(-c3ccccc3Cl)n2)ccc1=O` [Compound 11], the pIC50 was < 4.30.

With `O=C(Nc1cc(F)c(=O)n(CCF)c1)c1cc(C(F)(F)F)no1` [Compound 264], the pIC50 was 5.21.

In the case of `CCn1cc(NC(=O)c2cc(Cl)c(Cl)s2)cc(C#N)c1=O` [Compound 123], the pIC50 was 5.92.

On to `CN(C)C(=O)c1sc(C(=O)Nc2cc(F)c(=O)n(CCF)c2)cc1Cl` [Compound 282], for which the pIC50 was < 4.30.

The compound `O=C(Nc1cc(F)c(=O)n(CCF)c1)c1cc(C#Cc2cccnc2)c(Cl)s1` [Compound 328] showed a pIC50 of 7.42.

Consider `CCn1cc(NC(=O)c2cnc(Cl)s2)cc(Cl)c1=O` [Compound 103], for which the pIC50 is 6.45.

With `CCn1cc(NC(=O)c2ccc(Cl)n2C)ccc1=O` [Compound 18], the pIC50 was 4.71.

As for `CCn1cc(NC(=O)c2nc(Br)sc2C)ccc1=O` [Compound 36], the pIC50 was < 4.30.

`CCn1nc(C(=O)Nc2ccc(=O)n(CC)c2)cc1C` [Compound 32]: the pIC50 was < 4.30.

The compound `C/C=C/c1cc(C(=O)Nc2ccc(=O)n(CC)c2)sc1Cl` [Compound 279] gave a pIC50 of 4.62.

On to `CS(=O)(=O)c1ccc(C(=O)Nc2cc(F)c(=O)n(CCF)c2)s1` [Compound 288], for which the pIC50 was < 4.30.

In turn, `O=C(Nc1cc(F)c(=O)n(CC(F)(F)F)c1)c1cc(Cl)c(Cl)o1` [Compound 255] had a pIC50 of 4.78.

For `CCn1cc(NC(=O)c2csc(NC)n2)ccc1=O` [Compound 209], the pIC50 was < 4.30.

With `CNCCn1cc(NC(=O)c2cc(Cl)c(Cl)n2C)ccc1=O` [Compound 71], the pIC50 is < 4.30.

As to `CCn1cc(NC(=O)c2csc(NC(C)C)n2)ccc1=O` [Compound 218], the pIC50 is < 4.30.

Still in this test, the particulars now being: Table 3d.1; ATPase assay, enzyme 5 nM, ATP 250 uM, chicken mononucleosome 10 nM, 30 min preincubation; read-out: FL-SMARCA2 IC>50.
For the compound `CCc1cc(=O)n(CC)cc1NC(=O)c1cc(Cl)c(Cl)s1` [Compound 28d], the pIC50 was < 4.30.

Regarding `CCn1cc(NC(=O)C(=O)c2ccc(Cl)s2)ccc1=O` [Compound 1d], the pIC50 was < 4.30.

Take `Cc1cc(=O)n(C)cc1NC(=O)[C@@H]1CNC[C@H]1C(F)(F)F` [Compound 8d]: the pIC50 was < 4.30.

Turning to `COc1ncc(C(=O)Nc2cc(F)c(=O)n(CC(F)F)c2)cc1F` [Compound 42d], the pIC50 was 4.56.

In the case of `CCCn1nc(NC(=O)c2cc(Cl)c(Cl)s2)ccc1=O` [Compound 22d], the pIC50 is 5.20.

As for `CCn1c(C)c(NC(=O)c2cc(Cl)c(Cl)s2)ccc1=O` [Compound 25d], the pIC50 was < 4.30.

The target of another test is FL-SMARCA4 (Homo sapiens, UniProt P51532). Put plainly: SMARCA4 ATPase activity assay (ADP-Glo, chicken mononucleosome substrate). The settings on record: FL-SMARCA4 IC50.
FL-SMARCA4, sequence (P51532 whole entry): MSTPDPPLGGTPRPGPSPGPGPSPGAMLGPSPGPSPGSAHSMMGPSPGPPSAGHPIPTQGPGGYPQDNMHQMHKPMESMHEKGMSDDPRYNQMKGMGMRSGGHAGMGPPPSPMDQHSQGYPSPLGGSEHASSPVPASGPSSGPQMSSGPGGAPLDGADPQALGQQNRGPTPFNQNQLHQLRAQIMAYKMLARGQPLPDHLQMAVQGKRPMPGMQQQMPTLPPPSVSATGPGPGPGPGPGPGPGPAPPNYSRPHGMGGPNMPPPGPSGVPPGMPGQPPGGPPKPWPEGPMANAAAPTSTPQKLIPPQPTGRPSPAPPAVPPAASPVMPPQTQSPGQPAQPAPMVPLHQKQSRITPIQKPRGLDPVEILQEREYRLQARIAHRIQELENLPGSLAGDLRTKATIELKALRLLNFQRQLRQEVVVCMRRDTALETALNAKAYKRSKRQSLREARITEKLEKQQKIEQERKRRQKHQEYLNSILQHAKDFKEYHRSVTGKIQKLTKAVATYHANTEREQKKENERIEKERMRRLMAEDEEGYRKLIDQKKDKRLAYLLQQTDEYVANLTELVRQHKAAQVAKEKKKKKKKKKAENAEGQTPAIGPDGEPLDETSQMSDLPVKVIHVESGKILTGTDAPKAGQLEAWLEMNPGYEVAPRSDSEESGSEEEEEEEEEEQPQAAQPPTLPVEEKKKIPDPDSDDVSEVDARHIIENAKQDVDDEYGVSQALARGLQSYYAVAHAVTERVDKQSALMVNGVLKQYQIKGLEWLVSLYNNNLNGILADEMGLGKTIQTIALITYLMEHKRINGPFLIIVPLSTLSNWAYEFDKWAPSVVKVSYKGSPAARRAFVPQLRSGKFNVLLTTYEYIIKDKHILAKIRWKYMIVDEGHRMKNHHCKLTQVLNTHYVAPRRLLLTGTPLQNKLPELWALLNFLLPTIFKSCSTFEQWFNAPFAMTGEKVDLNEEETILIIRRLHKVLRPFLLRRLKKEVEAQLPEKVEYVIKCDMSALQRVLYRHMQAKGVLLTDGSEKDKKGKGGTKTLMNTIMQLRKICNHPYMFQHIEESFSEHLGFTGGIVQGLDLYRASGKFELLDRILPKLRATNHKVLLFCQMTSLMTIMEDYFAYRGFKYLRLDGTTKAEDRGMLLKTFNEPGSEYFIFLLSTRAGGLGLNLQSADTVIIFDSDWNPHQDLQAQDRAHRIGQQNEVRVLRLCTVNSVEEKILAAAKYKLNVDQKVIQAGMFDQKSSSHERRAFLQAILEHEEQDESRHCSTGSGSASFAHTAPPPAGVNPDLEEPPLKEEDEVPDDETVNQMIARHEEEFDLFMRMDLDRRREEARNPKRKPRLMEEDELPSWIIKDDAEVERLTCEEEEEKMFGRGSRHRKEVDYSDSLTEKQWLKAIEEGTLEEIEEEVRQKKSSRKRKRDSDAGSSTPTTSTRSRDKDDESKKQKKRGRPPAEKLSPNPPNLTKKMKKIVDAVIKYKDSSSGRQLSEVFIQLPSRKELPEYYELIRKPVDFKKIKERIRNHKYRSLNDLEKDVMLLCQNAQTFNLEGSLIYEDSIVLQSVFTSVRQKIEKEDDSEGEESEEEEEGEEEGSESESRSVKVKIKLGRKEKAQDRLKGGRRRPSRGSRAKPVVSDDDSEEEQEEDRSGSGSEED
`CCc1cc(=O)n(CC)cc1NC(=O)c1cc(Cl)c(Cl)s1` [Compound 28d]: the pIC50 is < 4.30.

`CCn1cc(NC(=O)C(=O)c2ccc(Cl)s2)ccc1=O` [Compound 1d]: the pIC50 is < 4.30.

In the case of `Cc1cc(=O)n(C)cc1NC(=O)[C@@H]1CNC[C@H]1C(F)(F)F` [Compound 8d], the pIC50 was < 4.30.

Regarding `COc1ncc(C(=O)Nc2cc(F)c(=O)n(CC(F)F)c2)cc1F` [Compound 42d], the pIC50 was < 4.30.

`CCCn1nc(NC(=O)c2cc(Cl)c(Cl)s2)ccc1=O` [Compound 22d] gave a pIC50 of 4.54.

Turning to `CCn1c(C)c(NC(=O)c2cc(Cl)c(Cl)s2)ccc1=O` [Compound 25d], the pIC50 is < 4.30.

Staying with this test, now noted: FL-SMARCA4 IC50, Table 3.2; ATPase assay, enzyme 5 nM, ATP 250 uM, chicken mononucleosome 10 nM, 30 min preincubation.
`Cn1c(C(=O)Nc2cc(Cl)c(=O)n(CCF)c2)cc(Cl)c1Cl` [Compound 134] showed a pIC50 of 6.20.

Consider `CCn1cc(NC(=O)c2c(C)noc2C)ccc1=O` [Compound 14], for which the pIC50 is < 4.30.

`O=C(Nc1cc(F)c(=O)n(CCF)c1)c1cnc(-n2ccnc2C(F)(F)F)s1` [Compound 281]: the pIC50 is < 4.30.

Regarding `O=C(Nc1cc(F)c(=O)n(CCF)c1)c1ccc(-c2ccn[nH]2)s1` [Compound 312], the pIC50 is < 4.30.

On to `CCn1cc(NC(=O)c2cc(Cl)n(C)c2)ccc1=O` [Compound 70], for which the pIC50 was < 4.30.

On to `CCn1cc(NC(=O)c2cc(-c3ccn(C)n3)c(Cl)s2)ccc1=O` [Compound 272], for which the pIC50 was < 4.30.

`N#Cc1cc(C(=O)Nc2ccc(=O)n(CCF)c2)sc1Cl` [Compound 187] had a pIC50 of 6.21.

As to `Cn1ccnc1-c1ccc(C(=O)Nc2cc(F)c(=O)n(CCF)c2)s1` [Compound 316], the pIC50 is < 4.30.

In the case of `COCCn1cc(NC(=O)c2nc(C)n(-c3ccccc3Cl)n2)ccc1=O` [Compound 11], the pIC50 is < 4.30.

On to `O=C(Nc1cc(F)c(=O)n(CCF)c1)c1cc(C(F)(F)F)no1` [Compound 264], for which the pIC50 is 4.41.

`CCn1cc(NC(=O)c2cc(Cl)c(Cl)s2)cc(C#N)c1=O` [Compound 123] had a pIC50 of 4.94.

Consider `CN(C)C(=O)c1sc(C(=O)Nc2cc(F)c(=O)n(CCF)c2)cc1Cl` [Compound 282], for which the pIC50 was < 4.30.

`O=C(Nc1cc(F)c(=O)n(CCF)c1)c1cc(C#Cc2cccnc2)c(Cl)s1` [Compound 328] showed a pIC50 of 6.97.

In turn, `CCn1cc(NC(=O)c2cnc(Cl)s2)cc(Cl)c1=O` [Compound 103] showed a pIC50 of 6.27.

As to `CCn1cc(NC(=O)c2ccc(Cl)n2C)ccc1=O` [Compound 18], the pIC50 is < 4.30.

Turning to `CCn1cc(NC(=O)c2nc(Br)sc2C)ccc1=O` [Compound 36], the pIC50 was < 4.30.

For the compound `CCn1nc(C(=O)Nc2ccc(=O)n(CC)c2)cc1C` [Compound 32], the pIC50 is < 4.30.

For `C/C=C/c1cc(C(=O)Nc2ccc(=O)n(CC)c2)sc1Cl` [Compound 279], the pIC50 was < 4.30.

With `CS(=O)(=O)c1ccc(C(=O)Nc2cc(F)c(=O)n(CCF)c2)s1` [Compound 288], the pIC50 is < 4.30.

Turning to `O=C(Nc1cc(F)c(=O)n(CC(F)(F)F)c1)c1cc(Cl)c(Cl)o1` [Compound 255], the pIC50 is < 4.30.

For `CCn1cc(NC(=O)c2csc(NC)n2)ccc1=O` [Compound 209], the pIC50 is < 4.30.

With `CNCCn1cc(NC(=O)c2cc(Cl)c(Cl)n2C)ccc1=O` [Compound 71], the pIC50 was < 4.30.

Take `CCn1cc(NC(=O)c2csc(NC(C)C)n2)ccc1=O` [Compound 218]: the pIC50 was < 4.30.
